Values of other authors as cited in US20230065168A1, “[…] COMBINATION WITH A REPLICATION-DEFICIENT TYPE 5 […] EXPRESSION OF INTERFERON GAMMA FOR THE TREATMENT OF SKIN CANCER” (ASCEND BIOPHARMACEUTICALS LTD, priority 2021, published 2023).

Compound: CS(=O)(=O)c1ccc(C(=O)Nc2ccc(Cl)c(-c3ccccn3)c2)c(Cl)c1 [vismodegib, 2-Chloro-N-(4-chloro-3-(pyridin-2-yl)phenyl)-4-(methylsulfonyl)benzamide]
- time at which adverse events generally begin to manifest (oral daily treatment): 6-8 weeks
- adverse events commonly associated with administration (patients with advanced BCC): muscle spasms, alopecia, dysgeusia, weight loss, fatigue, nausea, diarrhea, decreased appetite, constipation, arthralgia, vomiting, and ageusia
